Holding throughout (assay type): cell-based
The test system of one experiment is PC9 cells. The experiment in a line: Apoptosis by flow cytometry (Annexin-V, 7-AAD), PC9. Conditions: PC9, NGI-1 10 μM for 2 or 5 days, or Tn 1 μM. Here is the method: Analysis of apoptosis susceptibility in A549 and PC9 NSCLC cell lines followed treatment with NGI-1 10 μM or Tn 1 μM for 2 days was done by flow cytometry after staining the cells with Annexin-V (early apoptosis) and 7-AAD (viability dye). […] FIG. 9C: Western blot of BIP protein for A549 and PC9 cells after treatment with 10 μM NGI-1 for 6, 12 or 24 h. The expression of GAPDH was used as a loading control.

Another experiment concerns OST. As to the kind of experiment: Free and peptide glycans in streptolysin-O permeabilized CHO cells. Conditions: NGI-1 5 μM. On the procedure: Fluorophore assisted carbohydrate electrophoresis (FACE) was performed as previously described (Gao, et al., Glycobiology 2002, 12, 353-360; Gao, et al., J Biol Chem 2005, 280, 17901-17909). Control (Ac-Gln-Tyr-Thr-CONH2) and acceptor (Ac-Asn-Tyr-Thr-CONH2) peptides were used for permeabilized cell experiments. Metabolic labeling of Hela cells, transfection of prosaposin (pSAP) and steroid hormone binding globulin (SHBG) vectors, and knockdown of SIT3A and STT3B to monitor N-linked glycosylation knockdown were performed as described (Shrimal, et al., J Cell Biol 2013, 201, 81-95). Western blot analysis was performed as previously described (Bennett, et al., Transl Oncol 2013, 6, 382-391). […]
The OST is an ER resident multi-subunit complex that cleaves LLOs and transfers the oligosaccharide to a protein encoded N-linked glycosylation consensus sequence (NXT/S). […] Both enzymatic products of the OST, free glycans and protein glycans, were therefore determined with and without NGI-1 treatment using optimized conditions in streptolysin-O permeabilized CHO cells (FIG. 2C). Addition of a control peptide without the N-linked glycosylation consensus sequence (QYT) led to readily detectable levels of free glycans (left panel), while addition of an acceptor peptide containing the consensus sequence (NYT) followed by PNGase treatment led to detection of cleaved peptide glycans (right panel). […]

Another experiment relates to EGFR. The experiment in a line: Surface biotinylation of EGFR, H3255 cells. Conditions: H3255, 10 μM NGI-1, 24 h. Here is the method:
FIGS. 3A-3F illustrate the finding that NGI-1 disrupts EGFR glycosylation and cell surface expression. FIG. 3A illustrates EGFR western blots from H3255 treated with or without 10 μM NGI-1 for 24 h. Molecular weight size shifts are compared to PNGase digestion and tunicamycin treatment alone. FIG. 3B illustrates EGFR localization in H3255 cells after 24 h 10 μM NGI-1 treatment analyzed by western blot. Plasma membrane proteins present on the surface of H3255 cells were biotinylated using a non-permeable form of biotin, sulfo-NHS—SS-biotin, and precipitated by streptavidin agarose beads. Biotin-labeled plasma membrane proteins and the fraction of non-biotinylated proteins were subjected to SDS-PAGE and analyzed by western blot against EGFR. FIG. 3C illustrates EGFR localization in H3255 cells after 24 h 10 μM NGI-1 treatment analyzed by confocal microscopy. H3255 cells were subjected to immunofluorescence for EGFR protein (red) counterstained with (CRT; green) and colocalization was determined by confocal microscopy. Nuclei were counterstained with ToPro3 (cyan). […] Bar, 10 μm. FIG. 3D illustrates quantification of colocalization using Image J Colormap Software. […] ITB1 localization after 10 μM NGI-1 for 48 h analyzed by (FIG. 3E) surface biotinylation (FIG. 3F) confocal microscopy (green). […]

For `Cc1cnc(NC(=O)c2cc(S(=O)(=O)N(C)C)ccc2N2CCCC2)s1` [NGI-1, 5-(N,N-Dimethylsulfamoyl)-N-(5-methylthiazol-2-yl)-2-(pyrrolidin-1-yl)benzamide], in the experiment with PC9 cells, the induction of apoptosis entry is “did not induce apoptosis”. The “production of free glycans and cleaved peptide glycans” value with OST is “substantially reduced the production of both free and cleaved glycans”. In addition, the “EGFR distribution, biotinylated vs non-biotinylated fraction” value in the experiment with EGFR is on record as “predominantly found in the non-biotinylated intracellular fraction”.

(Values after US11219625B2, “Inhibitors of N-linked glycosylation and methods using same” (YALE UNIVERSITY, priority 2015, dated 2022).)
